Laboratory results: paper PMC9569529, “Safe and Efficient Sigma1 Ligand: A Potential Drug Candidate for Multiple Sclerosis” (International Journal of Molecular Sciences, 2022)

Columns and labels:
five bacterial strains = test: Ames test, overall conclusion on five bacterial strains; details: ±S9, 0.37 to 40 µg/plate
QT interval = test: ECG QT interval analysis under isoflurane anesthesia; details: for QT Interval Basal / QT Interval 3 min / QT Interval 6 min / QT Interval 10 min / QT Interval 20 min / QT Interval 30 min: in ms (unit assumed); for QT Interval 3 min: 3 min after injection; for QT Interval 6 min: 6 min after injection; for QT Interval 10 min: 10 min after injection; for QT Interval 20 min: 20 min after injection; for QT Interval 30 min: 30 min after injection
Experimental: Four electrodes were inserted subcutaneously in the mouse limbs. Electrical signals were recorded with a Powerlab (Ad instruments) and analyzed with LabChart Pro software (v8.1.19).
Heart rate and PR, QRS and QT intervals were measured as described in Supplementary Figure S3.

[1] = test system: dizocilpine-induced learning deficits; test: Dizocilpine-induced learning deficits, step-through passive avoidance; type: in vivo, male Swiss mice
Experimental: The activity of compound 7i was evaluated in regard to its ability to reverse dizocilpine-induced learning deficits. Two behavioral tests were performed by Amylgen (Montferrier-sur-Lez, France) on male Swiss mice (aged 6–9 weeks). All compounds (7i and controls) were intraperitoneally injected.
Animals were tested for spontaneous alternation performance in the Y-maze, an index of spatial working memory. Made of grey polyvinylchloride, the Y-maze has an arm which is 40 cm long, 13 cm high and 3 cm wide at the bottom and 10 cm wide at the top, converging at an equal angle. Each mouse was placed at the end of one arm and allowed to move freely through the maze during an 8-min session. The series of arm entries, including possible returns into the same arm, were checked visually. An alternation was defined as entries into all three arms on consecutive occasions. The number of maximum alternations was therefore the total number of arm entries minus two, and the percentage of alternation was calculated as: (actual alternations/maximum alternations) × 100. Parameters included the percentage of alternation (memory index) and the total number of arm entries (exploration index). Animals showing extreme behavior (alternation < 20% or >90% or number of arm entries < 10) are usually discarded from the calculations. […] Step-through latency (the latency in time spent to enter the dark compartment) and the number of vocalizations were recorded. […] Step-through latency was recorded up to 300 s. When either the mouse entered the dark compartment or 300 s had elapsed (they were therefore manually placed in it), escape latency (latency to exit from the dark compartment) was recorded with a value of up to 300 s. […]

[2] = test system: 40 different receptors relevant to CNS disease; parameters: method as in PMID 28756263; details: 40 receptors relevant to CNS disease; cited from earlier work
[3] = test system: experimental autoimmune encephalomyelitis (EAE); test: Relapsing EAE (PLP 139-151), curative protocol; type: in vivo, female SJL/J mice
CYP2B6 = test: CYP induction in human hepatocytes (mRNA, qPCR); type: in vitro ADME; details: 10 µM
Experimental: (§1) The compound was classically evaluated at 10 µM for all the ADME analyses. Bidirectional permeability (apical A to basolateral B pH 6.5/7.4 and basolateral B to apical A pH 7.4/6.5) was assessed in the epithelial colorectal adenocarcinoma cell line (Caco-2 cell line). Results were expressed as × 10^−6cm/s (Papp) and as % recovery. Efflux ratio, i.e., Papp(B-A)/Papp(A-B), was calculated. Plasma protein binding was analyzed by HPLC-MS/MS after 4-h incubation at 37 °C, as described by Banker et al.. Concentration was evaluated by LC/MS-MS. CYP inhibition was performed in human liver microsomes as described in [61]. Analysis of the respective metabolites. was performed by HPLC-MS/MS. Transporter inhibition analysis was also performed in overexpressing cell lines. Respective metabolites for each specific transporter substrate were analyzed by fluorometry or scintillation counting and % inhibition of control values were calculated. P-glycoprotein transporter substrate assessment was performed by bidirectional permeability analysis (apical A to basolateral B pH 7.4/7.4 and basolateral B to apical A pH 7.4/7.4) in the Caco-2 cell line with and without verapamil, as described in [59]. Results were expressed as ×10^−6 cm/s (Papp) and as % recovery. The efflux ratio, i.e., Papp(B-A)/Papp(A-B), was calculated. CYP450 induction characterization was performed on human hepatocytes. The mRNA levels of 7 different CYPs were analyzed by qPCR, as described in [72]. The compound was evaluated at 1, 10 and 100 µM. Fold-induction values were determined and compared to cut-off values, as defined for each CYP isozyme in each hepatocyte lot.

CYP3A4 = test: CYP induction in human hepatocytes (mRNA, qPCR); type: in vitro ADME; details: 10 µM
Experimental: as §1

Which results are given for `CN(CCCNC(=O)c1ccc(Cl)cc1)Cc1ccccc1` [compound 7i]?
mutagenic effects (Ames, conclusion) (five bacterial strains): no mutagenic effects; QT Interval Basal (QT interval; 0.5 mg/kg i.p. group): 49 ± 3; QT Interval 3 min (QT interval; 0.5 mg/kg i.p.): 48 ± 4; QT Interval 6 min (QT interval; 0.5 mg/kg i.p.): 46 ± 4; QT Interval 10 min (QT interval; 0.5 mg/kg i.p.): 53 ± 3; QT Interval 20 min (QT interval; 0.5 mg/kg i.p.): 59 ± 4; QT Interval 30 min (QT interval; 0.5 mg/kg i.p.): 58 ± 3; QT Interval Basal (QT interval; 1.0 mg/kg i.p. group): 48 ± 1; QT Interval 3 min (QT interval; 1.0 mg/kg i.p.): 45 ± 2; QT Interval 6 min (QT interval; 1.0 mg/kg i.p.): 46 ± 2; QT Interval 10 min (QT interval; 1.0 mg/kg i.p.): >49 ± 1; QT Interval Basal (QT interval; 10.0 mg/kg i.p. group): 46 ± 1; QT Interval 3 min (QT interval; 10.0 mg/kg i.p.): 43 ± 1; QT Interval 6 min (QT interval; 10.0 mg/kg i.p.): 45 ± 3; QT Interval 10 min (QT interval; 10.0 mg/kg i.p.): 49 ± 2; QT Interval 20 min (QT interval; 10.0 mg/kg i.p.): 52 ± 1; QT Interval 30 min (QT interval; 10.0 mg/kg i.p.): 54 ± 1; cardiac repolarization (QT interval), conclusion (QT interval; 0.5 to 10 mg/kg i.p.): no alteration in cardiac repolarization; heart rate, PR and QRS duration (QT interval; 0.5 to 10 mg/kg i.p.): did not alter; pro-arrhythmic effect (QT interval; 0.5 to 10 mg/kg i.p.): does not induce a pro-arrhythmic effect; dizocilpine-induced learning deficits, passive avoidance ([1]; 0.1 and 0.5 mg/kg i.p., dizocilpine 0.15 mg/kg): significantly attenuated; beneficial effect in passive avoidance with NE-100 treatment ([1]; plus NE-100 at 3 mg/kg i.p.): prevented; off-target selectivity profile [2]: excellent highly selective profile; EAE global evolution ([3]; 0.5 mg/kg i.p. daily for 15 days from score 2, followed 80 days): significantly reduced; EAE course ([3]; 0.5 mg/kg p.o. daily for 15 days from score 2): significant decrease; effect on EAE development after BD-1047 pretreatment ([3]; BD-1047 10 mg/kg i.p. 20 min before 7i): blocked; second relapse ([3]; i.p., 0.5 and 1 mg/kg daily for 15 days): No second relapse; effect on clinical score during treatment (first relapse) ([3]; i.p., 0.5 and 1 mg/kg, more pronounced at 1 mg/kg): visible from the first days of treatment; maximal clinical grade during the entire disease course ([3]; orally treated animals): ≤ 2 grade; clinical grade reached during the 15 days of administration ([3]; p.o. 0.5 mg/kg): 1 grade; rebound effect after end of treatment ([3]; p.o., as in i.p. administration): No rebound effect; modulation of CYP2B6 (induction, conclusion) (CYP2B6; three donors): No modulation; CYPs induction CYP2B6, donor #1 (CYP2B6; donor #1, cut-off (3)): 4.1%; CYPs induction CYP2B6, donor #2 (CYP2B6; donor #2, cut-off (4)): 4.1%; CYPs induction CYP2B6, donor #3 (CYP2B6; donor #3, cut-off (2)): 4.2%; modulation of CYP3A4 (induction, conclusion) (CYP3A4; three donors): No modulation; CYPs induction CYP3A4, donor #1 (CYP3A4; donor #1, cut-off (4)): 4.2%; CYPs induction CYP3A4, donor #2 (CYP3A4; donor #2, cut-off (6)): 1.6%; CYPs induction CYP3A4, donor #3 (CYP3A4; donor #3, cut-off (3)): 0.8%
